Test results as given in patent US20250179078A1, “INHIBITORS OF NLRP3” (PTC THERAPEUTICS, INC., priority 2022, published 2025).

Target: T1, NLRP3 (Homo sapiens, UniProt Q96P20)
T1 construct: host or cells: THP-1 cells differentiated with PMA
Test: IL-1β Secretion Assay (NLRP3-dependent IL1β secretion in THP1 cells)
Type: cell-based
Conditions: PMA-differentiated THP-1 cells; compounds incubated 20 h; 2.5 μM Nigericin 3 h; HTRF IL-1β readout; read-out: IC50 IL-1β Inhibition
Method: Monocytic THP-1 cells (ATCC: TIB-202) were maintained in growth media consisting of RPMI 1640 medium (ThermoFisher, Cat #11875-085), 10% FBS (ThermoFisher) and 0.05 mM β-mercaptoethanol (ThermoFisher, Cat #21985-023), according to the provider's instructions. The cell concentration was adjusted to 7.5×10^5 cells/mL, and plated in complete growth media with a final concentration of 100 ng/mL phorbol 12-myristate 13-acetate (PMA, Sigma #P8139). Cells were seeded at 100 µL/well into a 96-well cell culture plate (ThermoFisher Cat #165305) and allowed to differentiate for 24 h in a cell culture incubator at 37° C. with 5% CO2. Cells were washed 1× with 100 ul PBS and replaced with fresh RPMI+5% FBS. Compounds were serial diluted in DMSO with 3 fold dilution for a total of 7 concentrations. Diluted compounds were added to the cells at a ratio of 1:200 and incubated for 20 h. The NLRP3 inflammasome was activated with the addition of 2.5 μM Nigericin (Sigma: Cat #SML1779-1 ml), for 3 h. After incubation, 15 μL of conditioned media was removed and assayed for levels of IL-1β using the HTRF IL-1β assay kit (Cisbio: Cat #62HIL1BPEH) as per the manufacturer's instructions.
Compounds, once produced and prepared according to the present invention, can be assessed in variety of assays to characterize their activities. For example, NLRP3-dependent IL1β secretion was evaluated in THP1 cells. IC50 values of IL1β inhibition were calculated from the plot of percentage of inhibition versus the inhibitor concentration by a logistics fit. TABLE I depict examples of compounds according to generic Formula I. Data which is <1 nM is listed as *****; data 1-10 nM is listed as ****; data 10-100 nM is listed as ***, data 100-300 nM is listed as **, data ≥300 nM is listed as *.

T1 sequence (Q96P20 whole entry): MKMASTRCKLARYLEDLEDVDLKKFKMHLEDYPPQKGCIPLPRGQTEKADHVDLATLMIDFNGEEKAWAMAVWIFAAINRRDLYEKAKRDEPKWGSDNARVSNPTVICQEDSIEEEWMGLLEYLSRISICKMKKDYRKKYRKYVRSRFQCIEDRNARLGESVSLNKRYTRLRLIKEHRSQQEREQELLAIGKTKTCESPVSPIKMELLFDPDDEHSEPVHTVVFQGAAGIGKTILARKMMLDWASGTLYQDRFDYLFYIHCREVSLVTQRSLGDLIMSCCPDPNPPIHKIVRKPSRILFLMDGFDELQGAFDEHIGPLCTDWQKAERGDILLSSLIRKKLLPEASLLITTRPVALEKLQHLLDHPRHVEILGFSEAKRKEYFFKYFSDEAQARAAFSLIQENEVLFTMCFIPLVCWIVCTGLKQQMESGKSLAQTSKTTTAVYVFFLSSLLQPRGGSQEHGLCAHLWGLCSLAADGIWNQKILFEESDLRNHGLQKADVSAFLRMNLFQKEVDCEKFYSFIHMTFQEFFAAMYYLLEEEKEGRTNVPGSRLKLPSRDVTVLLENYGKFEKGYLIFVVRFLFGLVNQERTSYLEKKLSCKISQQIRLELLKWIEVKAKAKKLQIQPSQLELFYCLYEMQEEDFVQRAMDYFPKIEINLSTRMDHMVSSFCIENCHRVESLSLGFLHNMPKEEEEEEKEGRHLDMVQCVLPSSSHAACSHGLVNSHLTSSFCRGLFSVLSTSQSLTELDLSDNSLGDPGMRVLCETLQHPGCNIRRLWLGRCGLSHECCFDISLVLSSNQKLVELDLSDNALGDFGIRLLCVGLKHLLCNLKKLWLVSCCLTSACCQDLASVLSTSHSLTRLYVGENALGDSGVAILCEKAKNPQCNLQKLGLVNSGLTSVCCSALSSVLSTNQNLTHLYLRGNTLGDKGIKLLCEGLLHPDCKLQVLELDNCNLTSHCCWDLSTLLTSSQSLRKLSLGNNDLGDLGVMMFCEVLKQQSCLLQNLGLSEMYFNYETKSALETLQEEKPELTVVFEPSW

Compound	IC50 [nM]
O[C@@H]1CCCCC[C@@H]1Nc1nnc(-c2ccc(C(F)(F)F)cc2CC(F)(F)F)c2cccn12 (racemic) [Compound 126, (1S,2R)-2-({1-[2-(2,2,2-trifluoroethyl)-4-(trifluoromethyl)phenyl]pyrrolo[1,2-d][1,2,4]triazin-4-yl}amino)cycloheptan-1-ol AND (1R,2S)-2-({1-[2-(2,2,2-trifluoroethyl)-4-(trifluoromethyl)phenyl]pyrrolo[1,2-d][1,2,4]triazin-4-yl}amino)cycloheptan-1-ol]	1 to 10
O[C@@H]1CCCC[C@@H](Nc2nnc(-c3ccc(C(F)(F)F)cc3CC(F)(F)F)c3cccn23)C1 (racemic) [Compound 129, (1R,3R)-3-({1-[2-(2,2,2-trifluoroethyl)-4-(trifluoromethyl)phenyl]pyrrolo[1,2-d][1,2,4]triazin-4-yl}amino)cycloheptan-1-ol AND (1S,3S)-3-({1-[2-(2,2,2-trifluoroethyl)-4-(trifluoromethyl)phenyl]pyrrolo[1,2-d][1,2,4]triazin-4-yl}amino)cycloheptan-1-ol]	1 to 10
C[C@]1(O)CCCC[C@@H]1Nc1nnc(-c2ccc(C(F)(F)F)cc2CC(F)(F)F)c2cncn12 (racemic) [Compound 283, (1S,2S)-1-methyl-2-({1-[2-(2,2,2-trifluoroethyl)-4-(trifluoromethyl)phenyl]imidazo[1,5-d][1,2,4]triazin-4-yl}amino)cyclohexan-1-ol AND (1R,2R)-1-methyl-2-({1-[2-(2,2,2-trifluoroethyl)-4-(trifluoromethyl)phenyl]imidazo[1,5-d][1,2,4]triazin-4-yl}amino)cyclohexan-1-ol]	1 to 10
C[C@@H](Nc1nnc(-c2ccc(C(F)(F)F)cc2OC(F)F)c2cccn12)c1cccc(O)c1 (single isomer, unassigned) [Compound 102]	1 to 10
C[C@H](Nc1nnc(-c2ccc(C(F)(F)F)cc2OC(F)F)c2cccn12)c1cccc(O)c1 (single isomer, unassigned) [Compound 103]	10 to 100
COc1ccc(-c2nnc(N[C@H]3CCCC[C@]3(C)O)n3cccc23)c(OC(F)(F)F)c1 (single isomer, unassigned) [Compound 180]	1 to 10
COc1ccc(-c2nnc(N[C@@H]3CCCC[C@@]3(C)O)n3cccc23)c(OC(F)(F)F)c1 (single isomer, unassigned) [Compound 181]	≥ 300
COc1ccc(-c2nnc(NC(C)c3cccc(O)c3)n3cncc23)c(OC(F)(F)F)c1 (single isomer, unassigned) [Compound 247]	< 1
COc1ccc(-c2nnc(N[C@H](C)c3cccc(O)c3)n3cncc23)c(OC(F)(F)F)c1 (single isomer, unassigned) [Compound 248]	≥ 300
COc1ccc(-c2nnc(NC(C)c3cccnc3)n3cncc23)c(OC(F)(F)F)c1 (single isomer, unassigned) [Compound 308]	100 to 300
COc1ccc(-c2nnc(NC(C)c3cccnc3)n3cncc23)c(OC(F)(F)F)c1 (single isomer, unassigned) [Compound 309]	10 to 100
COc1ccc(-c2nnc(N[C@H]3CCCC[C@]3(C)O)n3cncc23)c(OC(F)(F)F)c1 (single isomer, unassigned) [Compound 310]	≥ 300
COc1ccc(-c2nnc(N[C@@H]3CCCC[C@@]3(C)O)n3cncc23)c(OC(F)(F)F)c1 (single isomer, unassigned) [Compound 311]	1 to 10
COc1ccc(-c2nnc(N[C@H]3C[C@@](C)(O)C3)n3cccc23)c(CC(F)(F)F)c1 [Compound 1, (1s,3s)-3-({1-[4-methoxy-2-(2,2,2-trifluoroethyl)phenyl]pyrrolo[1,2-d][1,2,4]triazin-4-yl}amino)-1-methylcyclobutan-1-ol]	1 to 10
CN1CCC[C@@H](Nc2nnc(-c3ccc(C(F)(F)F)cc3CC(F)(F)F)c3cncn23)C1 [Compound 2, N-[(3R)-1-methylpiperidin-3-yl]-1-[2-(2,2,2-trifluoroethyl)-4-(trifluoromethyl)phenyl]imidazo[1,5-d][1,2,4]triazin-4-amine]	< 1
Cc1cc2c(-c3ccc(C(F)(F)F)cc3OC(F)(F)F)nnc(N[C@H]3C[C@@](C)(O)C3)n2n1 [Compound 3, (1s,3s)-1-methyl-3-({2-methyl-4-[2-(trifluoromethoxy)-4-(trifluoromethyl)phenyl]pyrazolo[1,5-d][1,2,4]triazin-7-yl}amino)cyclobutan-1-ol]	1 to 10
C[C@]1(O)C[C@@H](Nc2nnc(-c3ccc(C(F)(F)F)cc3C(F)(F)F)c3ccnn23)C1 [Compound 4, (1s,3s)-3-({4-[2,4-bis(trifluoromethyl)phenyl]pyrazolo[1,5-d][1,2,4]triazin-7-yl}amino)-1-methylcyclobutan-1-ol]	1 to 10
CCN1C[C@H](F)C[C@@H](Nc2nnc(-c3ccc(C(F)(F)F)cc3OC(F)F)c3c(F)ccn23)C1 [Compound 5, 1-[2-(difluoromethoxy)-4-(trifluoromethyl)phenyl]-N-[(3R,5R)-1-ethyl-5-fluoropiperidin-3-yl]-8-fluoropyrrolo[1,2-d][1,2,4]triazin-4-amine]	1 to 10
FC(F)(F)c1ccc(-c2nnc(N[C@@H]3CCCN(C4CCCOC4)C3)n3cccc23)c(C(F)(F)F)c1 (stereo partly drawn) [Compound 6, 1-[2,4-bis(trifluoromethyl)phenyl]-N-[(3R)-1-(oxan-3-yl)piperidin-3-yl]pyrrolo[1,2-d][1,2,4]triazin-4-amine]	10 to 100
CN(C)C1CCCN(c2nnc(-c3ccc(C(F)(F)F)cc3C(F)(F)F)c3cccn23)C1 (stereo not drawn) [Compound 7, 1-{1-[2,4-bis(trifluoromethyl)phenyl]pyrrolo[1,2-d][1,2,4]triazin-4-yl}-N,N-dimethylpiperidin-3-amine]	10 to 100
COc1ccc(-c2nnc(N[C@@H]3CCCN(C)C3)n3cccc23)c(OC(F)(F)F)c1 [Compound 8, 1-[4-methoxy-2-(trifluoromethoxy)phenyl]-N-[(3R)-1-methylpiperidin-3-yl]pyrrolo[1,2-d][1,2,4]triazin-4-amine]	1 to 10
COc1ccc(-c2nnc(N[C@H]3C[C@@](C)(O)C3)n3cccc23)c(OC(F)(F)F)c1 [Compound 9, (1s,3s)-3-({1-[4-methoxy-2-(trifluoromethoxy)phenyl]pyrrolo[1,2-d][1,2,4]triazin-4-yl}amino)-1-methylcyclobutan-1-ol]	1 to 10
CC(C)CN1CCC[C@@H](Nc2nnc(-c3ccc(C(F)(F)F)cc3C(F)(F)F)c3cccn23)C1 [Compound 10, 1-[2,4-bis(trifluoromethyl)phenyl]-N-[(3R)-1-(2-methylpropyl)piperidin-3-yl]pyrrolo[1,2-d][1,2,4]triazin-4-amine]	1 to 10
Cc1cc2c(-c3ccc(Cl)cc3C(F)F)nnc(N[C@@H]3CCCN(C)C3)n2c1 [Compound 11, 1-[4-chloro-2-(difluoromethyl)phenyl]-7-methyl-N-[(3R)-1-methylpiperidin-3-yl]pyrrolo[1,2-d][1,2,4]triazin-4-amine]	10 to 100
COc1ccc(-c2nnc(N[C@@H]3CCCN(C)C3)n3cc(C)cc23)c(OC(F)F)c1 [Compound 12, 1-[2-(difluoromethoxy)-4-methoxyphenyl]-7-methyl-N-[(3R)-1-methylpiperidin-3-yl]pyrrolo[1,2-d][1,2,4]triazin-4-amine]	1 to 10
Cc1cc2c(-c3ccc(Cl)cc3OC(F)F)nnc(N[C@@H]3CCCN(C)C3)n2c1 [Compound 13, 1-[4-chloro-2-(difluoromethoxy)phenyl]-7-methyl-N-[(3R)-1-methylpiperidin-3-yl]pyrrolo[1,2-d][1,2,4]triazin-4-amine]	1 to 10
Cc1cc2c(-c3ccc(C4CC4)cc3C(F)F)nnc(N[C@@H]3CCCN(C)C3)n2c1 [Compound 14, 1-[4-cyclopropyl-2-(difluoromethyl)phenyl]-7-methyl-N-[(3R)-1-methylpiperidin-3-yl]pyrrolo[1,2-d][1,2,4]triazin-4-amine]	1 to 10
OCCN1CCC[C@@H](Nc2nnc(-c3ccc(C(F)(F)F)cc3OC(F)F)c3c(F)ccn23)C1 [Compound 15]	1 to 10
C[C@H](O)CNc1nnc(-c2ccc(C(F)(F)F)cc2OC(F)F)c2c(F)ccn12 [Compound 16, (2S)-1-({1-[2-(difluoromethoxy)-4-(trifluoromethyl)phenyl]-8-fluoropyrrolo[1,2-d][1,2,4]triazin-4-yl}amino)propan-2-ol]	10 to 100
CCN1CCC[C@@H](Nc2nnc(-c3ccc(OC)cc3C(F)(F)F)c3c(F)ccn23)C1 [Compound 17, N-[(3R)-1-ethylpiperidin-3-yl]-8-fluoro-1-[4-methoxy-2-(trifluoromethyl)phenyl]pyrrolo[1,2-d][1,2,4]triazin-4-amine]	1 to 10
